From ChEMBL document CHEMBL1201862, “PubChem BioAssay data set” (2004) come the findings set out here.

Calls of active or inactive are those of the source.

For test [1], the target named is DNA dC->dU-editing enzyme APOBEC-3A (Homo sapiens, UniProt P31941). Put plainly: APOBEC3A DNA deaminase inhibitors, dose response, biochemical (AID 504722). The format is functional.
Test [2] addresses T1, Rac GTPase-activating protein 1 (Homo sapiens, UniProt Q9H0H5).
T1 sequence (Q9H0H5 whole entry): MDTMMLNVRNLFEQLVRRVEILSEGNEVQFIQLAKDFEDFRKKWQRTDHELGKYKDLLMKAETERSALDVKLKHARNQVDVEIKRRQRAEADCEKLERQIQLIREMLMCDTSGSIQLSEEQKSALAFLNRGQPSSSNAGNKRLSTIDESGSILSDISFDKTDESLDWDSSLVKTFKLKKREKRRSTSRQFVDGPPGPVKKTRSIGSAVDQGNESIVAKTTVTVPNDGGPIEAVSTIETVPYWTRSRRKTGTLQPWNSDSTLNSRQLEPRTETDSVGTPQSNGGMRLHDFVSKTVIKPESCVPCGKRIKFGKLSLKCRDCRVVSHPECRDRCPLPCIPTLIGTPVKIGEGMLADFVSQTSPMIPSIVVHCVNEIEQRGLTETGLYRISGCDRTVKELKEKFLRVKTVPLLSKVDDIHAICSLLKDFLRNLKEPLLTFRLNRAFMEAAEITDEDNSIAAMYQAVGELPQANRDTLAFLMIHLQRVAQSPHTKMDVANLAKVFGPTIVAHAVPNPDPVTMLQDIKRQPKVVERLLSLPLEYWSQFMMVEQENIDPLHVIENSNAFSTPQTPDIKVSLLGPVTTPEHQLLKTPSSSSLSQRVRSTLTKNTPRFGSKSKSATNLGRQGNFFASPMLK
Put plainly: MgcRacGAP GTPase-activating activity inhibitors, confirmation, biochemical, ADP Hunter fluorescence, primary and confirmatory (AID 624330). In kind it is functional.

The target in test [3] is DNA dC->dU-editing enzyme APOBEC-3G (Homo sapiens, UniProt Q9HC16). Put plainly: Dose Response confirmation of small molecule APOBEC3G DNA Deaminase Inhibitors via a fluorescence-based single-stranded DNA deaminase assay. [Related pubchem assays (depositor defined):AID493012, AID493028]. The format is functional.
Chain of DNA dC->dU-editing enzyme APOBEC-3G (Q9HC16 whole entry): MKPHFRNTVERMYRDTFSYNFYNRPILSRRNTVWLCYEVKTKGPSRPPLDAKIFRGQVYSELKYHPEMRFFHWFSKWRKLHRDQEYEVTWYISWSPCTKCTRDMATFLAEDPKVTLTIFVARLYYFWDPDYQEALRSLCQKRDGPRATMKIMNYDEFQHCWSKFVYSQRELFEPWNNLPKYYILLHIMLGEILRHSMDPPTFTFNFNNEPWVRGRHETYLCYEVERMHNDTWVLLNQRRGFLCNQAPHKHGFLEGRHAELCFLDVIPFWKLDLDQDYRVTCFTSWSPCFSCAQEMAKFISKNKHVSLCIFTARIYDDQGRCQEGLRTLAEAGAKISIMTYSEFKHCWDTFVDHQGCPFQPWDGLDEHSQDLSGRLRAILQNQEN
The target in test [4] is Eukaryotic translation initiation factor 4E (Mus musculus, UniProt P63073). Put plainly: eIF4E–eIF4G protein interaction inhibitors, dose response, biochemical, TR-FRET (AID 855).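 Further: potency for disrupting eIF4E binding to eIF4GI seen as loss of FRET.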 In kind it is functional. In general terms: TR-FRET usually uses a lanthanide donor and a delayed reading to cut background.
Chain of Eukaryotic translation initiation factor 4E (P63073 whole entry): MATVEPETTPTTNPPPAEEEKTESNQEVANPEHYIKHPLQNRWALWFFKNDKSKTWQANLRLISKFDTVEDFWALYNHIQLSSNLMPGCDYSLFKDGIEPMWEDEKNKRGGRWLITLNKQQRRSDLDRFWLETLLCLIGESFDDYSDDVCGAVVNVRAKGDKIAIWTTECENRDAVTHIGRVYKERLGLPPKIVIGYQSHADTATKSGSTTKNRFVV
Test [5] has as its target T2, Coagulation factor XII (Homo sapiens, UniProt P00748).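 Further: activated factor XIIa alpha cleaving a fluorogenic AMC peptide substrate; inhibitor potency from loss of enzyme activity.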
T2 sequence (P00748 whole entry): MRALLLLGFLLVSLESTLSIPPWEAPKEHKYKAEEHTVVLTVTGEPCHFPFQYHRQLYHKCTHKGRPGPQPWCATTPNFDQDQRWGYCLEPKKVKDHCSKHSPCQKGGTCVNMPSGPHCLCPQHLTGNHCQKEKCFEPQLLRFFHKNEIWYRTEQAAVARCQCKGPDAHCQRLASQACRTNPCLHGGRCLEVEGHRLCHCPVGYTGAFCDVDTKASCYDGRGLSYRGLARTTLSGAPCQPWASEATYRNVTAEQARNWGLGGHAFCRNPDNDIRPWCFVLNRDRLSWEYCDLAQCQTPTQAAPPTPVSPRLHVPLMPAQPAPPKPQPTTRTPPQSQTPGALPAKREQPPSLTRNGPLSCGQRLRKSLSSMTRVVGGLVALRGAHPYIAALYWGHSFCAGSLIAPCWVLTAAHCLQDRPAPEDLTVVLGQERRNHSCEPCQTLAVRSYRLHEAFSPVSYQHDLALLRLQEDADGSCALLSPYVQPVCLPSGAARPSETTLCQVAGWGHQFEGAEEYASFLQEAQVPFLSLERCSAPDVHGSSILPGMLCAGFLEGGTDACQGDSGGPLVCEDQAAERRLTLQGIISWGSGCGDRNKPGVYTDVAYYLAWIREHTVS
The format is functional.

The target in test [6] is Nonstructural protein 1 (Influenza A virus, UniProt Q194T2). The format is functional, Influenza A virus (A/California/07/2009(H1N1)).
Chain of Nonstructural protein 1 (Q194T2 whole entry): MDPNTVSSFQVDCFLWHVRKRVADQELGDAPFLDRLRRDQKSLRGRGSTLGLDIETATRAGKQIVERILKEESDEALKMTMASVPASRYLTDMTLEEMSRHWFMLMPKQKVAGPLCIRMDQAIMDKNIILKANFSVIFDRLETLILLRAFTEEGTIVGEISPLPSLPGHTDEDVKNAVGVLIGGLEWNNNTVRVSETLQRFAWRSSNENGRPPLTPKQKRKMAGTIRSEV
Test [7] addresses T3, Protein RecA (Mycobacterium tuberculosis, UniProt P9WHJ3).
T3 sequence (P9WHJ3 whole entry): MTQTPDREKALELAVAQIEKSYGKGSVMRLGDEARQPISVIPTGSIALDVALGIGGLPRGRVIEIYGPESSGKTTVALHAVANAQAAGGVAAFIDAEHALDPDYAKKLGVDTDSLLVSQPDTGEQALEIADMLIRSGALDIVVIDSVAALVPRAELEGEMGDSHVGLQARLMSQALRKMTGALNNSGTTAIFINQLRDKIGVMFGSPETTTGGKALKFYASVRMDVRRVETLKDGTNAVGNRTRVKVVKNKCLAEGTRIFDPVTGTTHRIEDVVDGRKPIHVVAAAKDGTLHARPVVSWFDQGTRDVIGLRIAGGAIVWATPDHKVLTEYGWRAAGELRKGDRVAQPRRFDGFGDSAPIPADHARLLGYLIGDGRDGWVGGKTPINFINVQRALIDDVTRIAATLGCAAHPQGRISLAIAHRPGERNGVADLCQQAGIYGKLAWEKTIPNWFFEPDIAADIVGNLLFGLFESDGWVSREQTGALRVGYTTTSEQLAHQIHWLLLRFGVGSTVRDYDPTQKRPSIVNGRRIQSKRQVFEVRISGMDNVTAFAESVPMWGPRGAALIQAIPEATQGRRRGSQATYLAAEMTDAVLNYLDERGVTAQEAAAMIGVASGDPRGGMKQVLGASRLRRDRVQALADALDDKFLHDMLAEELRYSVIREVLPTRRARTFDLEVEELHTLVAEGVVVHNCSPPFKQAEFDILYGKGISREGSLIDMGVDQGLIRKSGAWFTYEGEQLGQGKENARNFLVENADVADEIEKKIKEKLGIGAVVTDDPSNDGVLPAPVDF
Nature of the test: Fluorescence Cell-Free Homogeneous Dose Retest to Identify Inhibitors of RecA-Intein Splicing Activity. [Related pubchem assays (depositor defined):AID2097, AID2223, AID489010, AID492950]. In kind it is functional.

In test [8] the target is T4, Replicative DNA helicase DnaB (Mycobacterium tuberculosis, UniProt P9WMR3).
T4 sequence (P9WMR3 whole entry): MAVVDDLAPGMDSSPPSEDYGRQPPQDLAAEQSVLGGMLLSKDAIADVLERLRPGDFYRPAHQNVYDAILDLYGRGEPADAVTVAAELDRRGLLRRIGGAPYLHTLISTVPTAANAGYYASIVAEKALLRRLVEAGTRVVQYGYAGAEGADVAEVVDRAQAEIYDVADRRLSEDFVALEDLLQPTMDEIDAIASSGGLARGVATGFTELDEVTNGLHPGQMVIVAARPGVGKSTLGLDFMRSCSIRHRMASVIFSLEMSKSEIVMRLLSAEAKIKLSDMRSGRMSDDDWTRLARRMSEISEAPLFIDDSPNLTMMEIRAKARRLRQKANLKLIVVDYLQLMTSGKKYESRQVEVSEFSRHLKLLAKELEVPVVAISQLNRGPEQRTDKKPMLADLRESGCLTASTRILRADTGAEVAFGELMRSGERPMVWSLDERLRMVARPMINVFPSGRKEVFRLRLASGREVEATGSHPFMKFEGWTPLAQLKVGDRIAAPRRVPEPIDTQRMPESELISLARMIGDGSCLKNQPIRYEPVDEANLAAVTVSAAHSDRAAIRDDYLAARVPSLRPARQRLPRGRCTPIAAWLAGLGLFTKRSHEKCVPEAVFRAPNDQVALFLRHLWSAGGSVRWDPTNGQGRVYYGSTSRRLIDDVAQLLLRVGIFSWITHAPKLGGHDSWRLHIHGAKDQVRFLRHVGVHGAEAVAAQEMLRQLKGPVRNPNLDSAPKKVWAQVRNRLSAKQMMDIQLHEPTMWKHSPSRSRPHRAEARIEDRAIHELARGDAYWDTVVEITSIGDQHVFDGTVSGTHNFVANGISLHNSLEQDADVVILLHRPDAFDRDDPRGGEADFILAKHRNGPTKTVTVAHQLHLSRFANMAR
Nature of the test: DnaB intein splicing inhibitors, dose response, biochemical, cell-free fluorescence (AID 449749). The format is functional.

The target in test [9] is T5, Heat shock factor protein 1 (Mus musculus, UniProt P38532).
T5 sequence (P38532 whole entry): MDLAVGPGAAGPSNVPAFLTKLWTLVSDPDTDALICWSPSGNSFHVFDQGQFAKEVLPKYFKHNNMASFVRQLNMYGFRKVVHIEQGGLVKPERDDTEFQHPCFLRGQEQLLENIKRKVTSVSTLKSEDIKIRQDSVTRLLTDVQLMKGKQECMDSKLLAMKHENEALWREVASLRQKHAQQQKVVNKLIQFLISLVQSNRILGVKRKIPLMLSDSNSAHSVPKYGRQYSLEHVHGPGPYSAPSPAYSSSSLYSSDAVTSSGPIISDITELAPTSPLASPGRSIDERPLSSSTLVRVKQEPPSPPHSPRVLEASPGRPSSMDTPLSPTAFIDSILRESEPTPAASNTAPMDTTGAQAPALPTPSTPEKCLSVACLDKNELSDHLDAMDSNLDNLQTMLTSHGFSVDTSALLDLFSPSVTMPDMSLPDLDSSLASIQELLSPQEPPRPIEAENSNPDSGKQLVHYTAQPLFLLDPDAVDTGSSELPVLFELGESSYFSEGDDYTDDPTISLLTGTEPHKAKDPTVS
Nature of the test: HSF1 potentiators in luciferase reporter cells, confirmation, cell-based, NIH3T3, luminescence, dose retest (AID 435004).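 Further: stress induced by proteasome inhibitor MG132 added 30 min after compound; luciferase reporter driven by HSF1 response element in NIH3T3 cells; actives raise luminescence as potentiators of the MG132 stress response.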 The format is functional. (In a reporter assay the amount or activity of a reporter protein is the signal.)

The target in test [10] is Dual specificity tyrosine-phosphorylation-regulated kinase 1A (Rattus norvegicus, UniProt Q63470). In kind it is biochemical, Homo sapiens.
Test [11] concerns the target T6, Long-chain-fatty-acid--AMP ligase FadD28 (Mycobacterium tuberculosis, UniProt P9WQ59).
T6 sequence (P9WQ59 whole entry): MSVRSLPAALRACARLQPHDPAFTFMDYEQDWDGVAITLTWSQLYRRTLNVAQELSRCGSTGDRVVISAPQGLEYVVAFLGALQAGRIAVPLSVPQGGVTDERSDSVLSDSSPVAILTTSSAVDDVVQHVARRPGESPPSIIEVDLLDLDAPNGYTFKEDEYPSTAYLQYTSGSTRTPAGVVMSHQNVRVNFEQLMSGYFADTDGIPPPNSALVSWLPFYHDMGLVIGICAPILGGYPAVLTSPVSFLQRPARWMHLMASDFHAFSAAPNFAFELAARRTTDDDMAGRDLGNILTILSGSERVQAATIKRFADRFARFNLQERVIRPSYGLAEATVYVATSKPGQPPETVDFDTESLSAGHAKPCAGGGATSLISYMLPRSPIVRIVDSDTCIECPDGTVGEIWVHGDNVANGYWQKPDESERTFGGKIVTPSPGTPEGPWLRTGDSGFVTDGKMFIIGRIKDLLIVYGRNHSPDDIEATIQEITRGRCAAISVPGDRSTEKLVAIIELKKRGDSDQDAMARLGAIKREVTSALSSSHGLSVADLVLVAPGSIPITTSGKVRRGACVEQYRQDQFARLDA
Put plainly: Fluorescence polarization aasay to screen for inhibitors that compete for the binding of FadD28 to a bisubstrate Measured in Biochemical System Using Plate Reader - 2147-01_Inhibitor_Dose_CherryPick_Activity. The format is functional, Mycobacterium tuberculosis H37Rv. For orientation: Polarisation of emitted light reports the rotation of a fluorescent probe.

In test [12] the target is Trypsin (Sus scrofa, UniProt P00761). Nature of the test: porcine trypsin inhibitors, dose response, selectivity assay for Rce1 protease inhibitor project, biochemical, quenched peptide fluorescence, cherry-pick (AID 488789).
Chain of Trypsin (P00761 whole entry): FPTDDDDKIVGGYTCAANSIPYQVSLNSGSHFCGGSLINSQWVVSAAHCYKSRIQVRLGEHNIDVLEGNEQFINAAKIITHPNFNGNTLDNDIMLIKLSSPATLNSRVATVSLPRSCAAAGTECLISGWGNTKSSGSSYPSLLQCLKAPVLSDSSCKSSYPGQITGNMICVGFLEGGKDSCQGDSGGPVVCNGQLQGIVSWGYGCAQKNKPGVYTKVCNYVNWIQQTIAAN
The target of test [13] is Peroxisome proliferator-activated receptor gamma/Nuclear receptor coactivator 1 (Homo sapiens, UniProt P37231). The format is functional.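 Further: agonist potency as compounds enhance coactivator SRC-1 recruitment to PPARgamma.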
Test [14] has as its target Peroxisome proliferator-activated receptor gamma/Nuclear receptor coactivator 2 (Homo sapiens, UniProt P37231). In kind it is functional.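 Further: agonist potency for raising coactivator recruitment to the receptor.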
For test [15], the target named is Peroxisome proliferator-activated receptor gamma/Nuclear receptor coactivator 3 (Homo sapiens, UniProt P37231). In kind it is functional.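 Further: agonist potency for raising coactivator recruitment to the receptor.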
Chain of Peroxisome proliferator-activated receptor gamma/Nuclear receptor coactivator 3 (P37231 whole entry): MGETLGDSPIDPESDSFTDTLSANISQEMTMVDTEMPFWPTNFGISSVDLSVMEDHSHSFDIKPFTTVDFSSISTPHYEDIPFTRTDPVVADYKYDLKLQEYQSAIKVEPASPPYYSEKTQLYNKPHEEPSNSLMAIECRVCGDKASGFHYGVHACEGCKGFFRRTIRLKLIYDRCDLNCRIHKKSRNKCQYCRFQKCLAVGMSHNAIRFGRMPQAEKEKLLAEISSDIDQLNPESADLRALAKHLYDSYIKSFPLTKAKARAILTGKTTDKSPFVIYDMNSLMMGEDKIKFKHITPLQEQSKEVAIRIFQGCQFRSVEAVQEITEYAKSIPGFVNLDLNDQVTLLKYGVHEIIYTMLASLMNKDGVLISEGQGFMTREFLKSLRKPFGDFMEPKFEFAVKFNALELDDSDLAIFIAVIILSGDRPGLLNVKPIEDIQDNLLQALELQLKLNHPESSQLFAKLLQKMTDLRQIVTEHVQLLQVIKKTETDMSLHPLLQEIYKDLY
Chain of Peroxisome proliferator-activated receptor gamma/Nuclear receptor coactivator 3 (Q9Y6Q9 whole entry, further chain): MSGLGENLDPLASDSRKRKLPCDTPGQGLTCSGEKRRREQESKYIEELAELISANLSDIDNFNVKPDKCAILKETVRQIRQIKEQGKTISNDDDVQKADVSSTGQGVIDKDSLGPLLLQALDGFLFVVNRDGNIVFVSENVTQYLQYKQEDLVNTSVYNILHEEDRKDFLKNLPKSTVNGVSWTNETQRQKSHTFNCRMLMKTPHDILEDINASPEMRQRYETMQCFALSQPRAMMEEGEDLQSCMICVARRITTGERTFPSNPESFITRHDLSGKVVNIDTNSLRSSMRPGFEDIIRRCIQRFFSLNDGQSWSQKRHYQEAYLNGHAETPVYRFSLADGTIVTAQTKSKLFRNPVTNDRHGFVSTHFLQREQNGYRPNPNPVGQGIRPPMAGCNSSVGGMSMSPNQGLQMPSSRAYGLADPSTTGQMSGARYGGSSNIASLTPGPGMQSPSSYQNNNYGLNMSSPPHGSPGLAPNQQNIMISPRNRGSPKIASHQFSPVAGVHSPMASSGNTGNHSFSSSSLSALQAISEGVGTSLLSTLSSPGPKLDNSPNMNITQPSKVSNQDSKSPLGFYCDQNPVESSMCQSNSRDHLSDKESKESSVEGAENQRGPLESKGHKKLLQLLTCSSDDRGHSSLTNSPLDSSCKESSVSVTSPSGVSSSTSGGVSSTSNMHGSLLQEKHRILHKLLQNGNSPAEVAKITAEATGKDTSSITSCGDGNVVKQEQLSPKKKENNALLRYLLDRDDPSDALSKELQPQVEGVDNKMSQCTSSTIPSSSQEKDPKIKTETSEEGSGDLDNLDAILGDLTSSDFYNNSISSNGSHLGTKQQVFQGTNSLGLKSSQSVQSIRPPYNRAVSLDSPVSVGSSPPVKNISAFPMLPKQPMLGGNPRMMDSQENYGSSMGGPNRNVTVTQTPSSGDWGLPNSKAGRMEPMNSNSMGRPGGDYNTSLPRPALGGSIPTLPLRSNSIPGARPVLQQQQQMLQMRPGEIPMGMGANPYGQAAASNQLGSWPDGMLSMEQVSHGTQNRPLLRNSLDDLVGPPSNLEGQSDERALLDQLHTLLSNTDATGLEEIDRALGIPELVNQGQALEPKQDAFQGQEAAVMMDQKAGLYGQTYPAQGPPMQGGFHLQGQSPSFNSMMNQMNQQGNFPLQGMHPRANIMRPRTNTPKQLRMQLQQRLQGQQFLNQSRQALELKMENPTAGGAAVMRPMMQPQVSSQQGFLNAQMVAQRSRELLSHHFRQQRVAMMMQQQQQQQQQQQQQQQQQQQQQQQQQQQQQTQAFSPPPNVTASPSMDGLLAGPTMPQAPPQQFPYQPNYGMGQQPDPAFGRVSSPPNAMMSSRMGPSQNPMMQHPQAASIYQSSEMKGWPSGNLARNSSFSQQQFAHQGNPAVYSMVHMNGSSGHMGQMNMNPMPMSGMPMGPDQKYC

Chain of DNA dC->dU-editing enzyme APOBEC-3A (P31941 whole entry): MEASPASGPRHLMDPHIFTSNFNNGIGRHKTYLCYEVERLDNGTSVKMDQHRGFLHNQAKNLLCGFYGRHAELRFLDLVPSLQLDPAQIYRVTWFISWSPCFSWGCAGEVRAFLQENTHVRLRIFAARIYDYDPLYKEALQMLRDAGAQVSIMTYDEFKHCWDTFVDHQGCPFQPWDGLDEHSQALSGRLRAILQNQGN

As a reminder, the IC50 is the point on the concentration scale where inhibition reaches its midpoint. With `CCn1c(=O)c2c3c(sc2n2c(=S)[nH]nc12)CCC3`, the IC50 in test [1] was > 100 µM (inactive); in [2] it was 26.4 µM (active); in test [3] it was 4.78 µM (active); in [4] it was > 64 µM (inactive).
With `O=C(COC(=O)COc1ccccc1Cl)Nc1ccccc1OC(F)F`, the IC50 in test [5] was > 50 µM (inactive).
`CCOc1ccc(N(CC(=O)Nc2ccc3c(c2)OCCO3)S(=O)(=O)c2c(C)noc2C)cc1`: in [5], the IC50 is > 50 µM (inactive).
By EC50 is commonly meant the midpoint of the concentration-response curve. The AC50 is the concentration at which the activity in the assay is half-maximal. With `O=C1c2ccccc2-c2onc3ccc(N4CCCC4)c1c23`, the IC50 in [6] was 23.6 µM (active); in [4], 50 µM (inactive). For the same compound, the EC50 was 0.606 µM (active) in test [7] and > 260 µM (inactive) in test [9]. In addition, the results for the AC50 in [8], in test [10] and in test [11] were > 380 µM (inactive), 1.67 µM (active) and 15.1 µM (active), respectively.
As for `COc1ccc2oc(-c3ccccc3)c(C(=O)N3CCOCC3)c2c1`, the AC50 in test [12] is 4.55 µM (active).
`CC(C)(C)c1cc(C(=S)N2CCN(CCO)CC2)cc(C(C)(C)C)c1O`: the IC50 in test [1] is > 100 µM (inactive); in [3], 13.4 µM (active). The EC50 in test [13], in test [14] and in test [15] was > 79.4 µM (not active) in each case.
With `Cc1ccc(C2=NN(S(=O)(=O)c3ccccc3)C(c3ccccc3O)C2)cc1` (stereo unspecified), in [5], the IC50 was > 50 µM (inactive). Moreover, in [11], the AC50 is > 100 µM (inactive).
